In assay [1] the target is Biotinylated KRAS G12C protein (Homo sapiens (Human), UniProt P01116, C118S/C51S/C80L/G12C). The experiment in a line: SOS-catalyzed nucleotide exchange assay (TR-FRET). In kind it is biochemical. To be noted: in vitro apparent potency; preincubation time of 60 minutes prior to addition of SOS. In a few lines: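 Biotinylated KRAS G12C preloaded with Bodipy-GDP and Tb-streptavidin, then incubated with compound (10-point, 3-fold series) for 60 min at RT. Exchange started with SOS and GTP for 60 min. TR-FRET 520/495 ratio normalised to DMSO and saturating-inhibitor controls; four-parameter fit.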

In another assay the test system is phospho-ERK. Description: Cellular phospho-ERK assay. In kind it is cell-based. To be noted: NCI-H358 cells, 2 hour incubation, ratio of p-Erk vs total Erk, read-out: IC50 (nM) pERK (Cell). In a few lines:
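NCI-H358 cells seeded overnight, then exposed to compound dose-response titrations for 2 hours at 37° C. in RPMI. Lysates assayed by AlphaLISA SureFire Ultra multiplex for p-Erk and total Erk; ratio p-Erk/total Erk used as readout, IC50 from 4-parameter logistic fit.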

Like-named read-outs stand apart in the source and are kept apart here.

With `C=CC(=O)N1CCN(c2nc(=O)n3c4nc(c(F)cc24)-c2cccc4cnn(c24)CCCOc2ccnc(C(C)C)c2-3)[C@H](C)C1` [Example 3b, 22-fluoro-2-[(2S)-2-methyl-4-(prop-2-enoyl)piperazin-1-yl]-6-(propan-2-yl)-12,13-dihydro-4H,11H-1,20-ethenopyrido[4′,3′:2,3]pyrimido[1′,6′:4,5][1,4,6,10]oxatriazacyclotridecino[8,9,10-hi]indazol-4-one], the IC50 (commonly the concentration at which inhibition is half-maximal) in assay [1] is 15 nM; with phospho-ERK, 93 nM.
Take `C=CC(=O)N1C[C@H](C)N(c2nc(=O)n3c4nc(c(F)cc24)-c2c(ccc(F)c2F)OCC2(CC2)Cc2ccnc(C(C)C)c2-3)C[C@H]1C` [Example 92, 2′-[(2S,5R)-2,5-dimethyl-4-(prop-2-enoyl)piperazin-1-yl]-16′,17′,20′-trifluoro-6′-(propan-2-yl)-4′H,10′H,12′H-spiro[cyclopropane-1,11′-[13]oxa[3,5,7,19]tetraaza[1,18]ethenopyrido [4,3-e]pyrimido[1,6-g][1,7,9]benzoxadiazacyclododecin]-4′-one]: the IC50 came to 0.71 nM in assay [1] and 12 nM in the assay with phospho-ERK (Homo sapiens, NCI-H358, 2 h).
Turning to `C=CC(=O)N1CCN(c2nc(=O)n3c4nc(c(F)cc24)-c2c(F)cccc2OCCOc2ccnc(C(C)C)c2-3)[C@@H](C)C1` (single isomer, unassigned) [Example 12a], the IC50 in assay [1] amounted to 3.9 nM; with phospho-ERK (Homo sapiens, NCI-H358, 2 h) it was 6.9 nM.
`C=CC(=O)N1CCN(c2nc(=O)n3c4nc(c(F)cc24)-c2c(F)cccc2COCCc2ccnc(C(C)C)c2-3)[C@@H](C)C1` [Example 18a, 17,20-difluoro-2-[(2S)-2-methyl-4-(prop-2-enoyl)piperazin-1-yl]-6-(propan-2-yl)-10,11-dihydro-1,18-ethenopyrido[3,4-e]pyrimido[6,1-c][9,2,4]benzoxadiazacyclododecin-4(13H)-one]: the half-inhibitory concentration (IC50) came out at 10 nM in assay [1] and 35 nM with phospho-ERK.
Taken in the same sequence, the figures for `C=CC(=O)N1C[C@H](C)N(c2nc(=O)n3c4nc(c(F)cc24)-c2cccc(F)c2OCCOc2ccnc(C(C)C)c2-3)C[C@H]1C` [Example 114, 2-[(2S,5R)-2,5-dimethyl-4-(prop-2-enoyl)piperazin-1-yl]-14,20-difluoro-6-(propan-2-yl)-11,12-dihydro-4H-1,18-(ethanediylidene)pyrido[4,3-e]pyrimido[1,6-g][1,4,7,9]benzodioxadiazacyclododecin-4-one] were 43 nM and 112 nM.
Taken in the same sequence, the figures for `C=CC(=O)N1C[C@H](C)N(c2nc(=O)n3c4nc(c(F)cc24)-c2c(F)ccc(F)c2OC[C@H](C)Oc2ccnc(C(C)C)c2-3)C[C@H]1C` [Example 94, (11S)-2-[(2S,5R)-2,5-dimethyl-4-(prop-2-enoyl)piperazin-1-yl]-14,17,20-trifluoro-11-methyl-6-(propan-2-yl)-11,12-dihydro-4H-1,18-ethenopyrido[4,3-e]pyrimido[1,6-g][1,4,7,9]benzodioxadiazacyclododecin-4-one] were 3.4 nM and 42 nM.
`C=CC(=O)N1C[C@H](C)N(c2nc(=O)n3c4nc(c(F)cc24)-c2c(F)cccc2OCCOc2ccnc(C(C)C)c2-3)C[C@H]1C` (single isomer, unassigned) [Example 15a]: the IC50 in assay [1] stood at 6.5 nM; in the assay on phospho-ERK (Homo sapiens, NCI-H358, 2 h) it was 11 nM.
For the compound `C=CC(=O)N1CC(C)N(c2nc(=O)n3c4nc(c(C)cc24)-c2c(F)ccc(F)c2OCCOc2ccnc(C(C)C)c2-3)CC1C` [Example 110, 2-[(2S,5R)-2,5-dimethyl-4-(prop-2-enoyl)piperazin-1-yl]-14,17-difluoro-20-methyl-6-(propan-2-yl)-11,12-dihydro-4H-1,18-ethenopyrido[4,3-e]pyrimido[1,6-g][1,4,7,9]benzodioxadiazacyclododecin-4-one], the IC50 in assay [1] was determined as 4.5 nM; in the assay with phospho-ERK, 23 nM.
On to `C=CC(=O)N1C[C@H](C)N(c2nc(=O)n3c4nc(c(F)cc24)-c2c(F)cccc2OCCCCc2cnc(C(C)C)c-3c2C)C[C@H]1C` [Example 88, 2-[(2S,5R)-2,5-dimethyl-4-(prop-2-enoyl)piperazin-1-yl]-19,22-difluoro-24-methyl-7-(propan-2-yl)-11,12,13,14-tetrahydro-4H-1,20-etheno-6,10-(metheno)pyrimido[1,6-k][1,8,11,13]benzoxatriazacyclohexadecin-4-one], for which the values for the 50% inhibitory concentration (IC50) (in assay [1]; in the assay with phospho-ERK) were 1.1 nM and 96 nM, respectively.
On to `C=CC(=O)N1CCN(c2nc(=O)n3c4nc(c(F)cc24)-c2cccc4cnn(c24)CCCCc2ccnc(C(C)C)c2-3)[C@@H](C)C1` [Example 6, 22-fluoro-2-[(2S)-2-methyl-4-(prop-2-enoyl)piperazin-1-yl]-6-(propan-2-yl)-10,11,12,13-tetrahydro-4H-1,20-(ethanediylidene)-pyrido[4′,3′:12,13]pyrimido-[1′,6′:1,2][1,3,7]triazacyclo-tridecino[5,6,7-hi]indazol-4-one], for which the concentration for half-maximal inhibition (IC50) in assay [1] worked out at 9.2 nM; with phospho-ERK (Homo sapiens, NCI-H358, 2 h) it was 45 nM.
With `C=CC(=O)N1CCN(c2nc(=O)n3c4nc(c(F)cc24)-c2c(F)cccc2OCCCOc2ccnc(C(C)C)c2-3)[C@@H](C)C1` [Example 1a, 18,21-difluoro-2-[(2S)-2-methyl-4-(prop-2-enoyl)piperazin-1-yl]-6-(propan-2-yl)-12,13-dihydro-4H,11H-1,19-ethenopyrido[4,3-f]pyrimido[1,6-h][1,5,8,10]benzodioxadiazacyclotridecin-4-one], the IC50 in assay [1] stood at 11 nM; with phospho-ERK, 21 nM.
`C=CC(=O)N1CC2CCC1CN2c1nc(=O)n2c3nc(c(F)cc13)-c1c(F)cccc1OCCCc1ccnc(C(C)C)c1-2` (centres unmarked) [Example 105, 17,20-difluoro-6-(propan-2-yl)-2-[5-(prop-2-enoyl)-2,5-diazabicyclo[2.2.2]octan-2-yl]-11,12-dihydro-4H,10H-1,18-ethenopyrido[4,3-e]pyrimido[1,6-g][1,7,9]benzoxadiazacyclododecin-4-one]: the IC50 is 1910 nM in assay [1] and 3600 nM in the assay on phospho-ERK (Homo sapiens, NCI-H358, 2 h).
For `C=CC(=O)N1CC(C)N(c2nc(=O)n3c4nc(c(Cl)cc24)-c2c(F)cccc2COCCc2ccnc(C(C)C)c2-3)CC1C` [Example 109, 20-chloro-2-[(2S,5R)-2,5-dimethyl-4-(prop-2-enoyl)piperazin-1-yl]-17-fluoro-6-(propan-2-yl)-10,11-dihydro-1,18-ethenopyrido[3,4-e]pyrimido[6,1-c][9,2,4]benzoxadiazacyclododecin-4(13H)-one], the results for the concentration for half-maximal inhibition (IC50) (in assay [1]; in the assay with phospho-ERK) were 2.3 nM and 21 nM, respectively.
Consider `C=CC(=O)N1CCN(c2nc(=O)n3c4nc(c(F)cc24)-c2c(F)cccc2OCCCc2ccnc(C(C)C)c2-3)C[C@@H]1CC#N` (single isomer, unassigned) [Example 11a], for which the IC50 in assay [1] amounted to 19 nM; in the assay on phospho-ERK (Homo sapiens, NCI-H358, 2 h), 395 nM.
Take “[(2S)-4-[17,20-difluoro-4- oxo-6-(propan-2-yl)-11,12- dihydro-4H-1,18- (ethanediylidene)pyrido[4,3- e]pyrimido[1,6-g][1,4,7,9] benzodioxadiazacyclo- dodecin-2-yl]-1-(prop-2- enoyl)piperazin-2- yl]acetonitrile [Example 14a]”: the figures for the IC50 (in assay [1]; in the assay with phospho-ERK) were 8.1 nM and 1240 nM, respectively.
Regarding `C=CC(=O)N1C[C@H](C)N(c2nc(=O)n3c4nc(c(F)cc24)-c2cc(F)c(F)cc2OCCOc2ccnc(C(C)C)c2-3)C[C@H]1C` [Example 84, 2-[(2S,5R)-2,5-dimethyl-4-(prop-2-enoyl)piperazin-1-yl]-15,16,20-trifluoro-6-(propan-2-yl)-11,12-dihydro-4H-1,18-(ethanediylidene)pyrido[4,3-e]pyrimido[1,6-g][1,4,7,9]benzodioxadiazacyclododecin-4-one], the IC50 in assay [1] was determined as 38 nM; with phospho-ERK (Homo sapiens, NCI-H358, 2 h), 119 nM.
Consider `C=CC(=O)N1CC(C)N(c2nc(=O)n3c4nc(c(F)cc24)-c2c(F)cc(F)cc2OCC(F)(F)CCc2ccnc(C(C)C)c2-3)CC1C` [Example 56, (5aRa,18aRa)-2-[(2S,5R)-2,5-dimethyl-4-(prop-2-enoyl)piperazin-1-yl]-12,12,16,18,21-pentafluoro-6-(propan-2-yl)-10,11,12,13-tetrahydro-4H-1,19-(ethanediylidene)pyrido[4,3-f]pyrimido[1,6-h][1,8,10] benzoxadiazacyclotri-decin-4-one], for which the IC50 in assay [1] turned out to be 1.1 nM; in the assay on phospho-ERK (Homo sapiens, NCI-H358, 2 h) it was 8 nM.
Taken in the same sequence, the figures for `C=CC(=O)N1C[C@H](C)N(c2nc(=O)n3c4nc(c(F)cc24)-c2c(ccc(F)c2F)OCCCc2ccnc(C(C)C)c2-3)C[C@H]1C` [Example 78, 2-[(2S,5R)-2,5-dimethyl-4-(prop-2-enoyl)piperazin-1-yl]-16,17,20-trifluoro-6-(propan-2-yl)-11,12-dihydro-4H,10H-1,18-ethenopyrido[4,3-e]pyrimido[1,6-g][1,7,9]benzoxadiazacyclododecin-4-one] were 2.4 nM and 18 nM.
On to `C=CC(=O)N1C[C@H](C)N(c2nc(=O)n3c4nc(c(F)cc24)-c2c(F)ccc(F)c2OCCOc2ccnc(C4CC4)c2-3)C[C@H]1C` [Example 111, 6-cyclopropyl-2-[(2S,5R)-2,5-dimethyl-4-(prop-2-enoyl)piperazin-1-yl]-14,17,20-trifluoro-11,12-dihydro-4H-1,18-ethenopyrido[4,3-e]pyrimido[1,6-g][1,4,7,9]benzodioxadiazacyclododecin-4-one], for which the IC50 in assay [1] worked out at 17 nM; in the assay on phospho-ERK, 154 nM.

(Values after patent US20240043448A1, “Small Molecule Inhibitors of KRAS G12C Mutant” (Merck Sharp & Dohme LLC, priority 2019, published 2024).)
